Tests used:
[1] = system: ovariectomized rats; assay: Ovariectomized rat model of postmenopausal hyperlipidemia (serum cholesterol, uterine weight, uterine eosinophil infiltration); format: in vivo; settings: for Serum Cholesterol % Decrease / Uterine Weight Increase: versus ovariectomized controls
Experimental: Experimental models of postmenopausal hyperlipidemia are known in the art.
This uterine response to estrogen is well recognized in the art.
As expressed in the data below, estrogenicity also was assessed by evaluating the response of eosinophil infiltration into the uterus.
The data presented in Table 2 reflect the response per treatment group.

[2] = target: estrogen receptor (Homo sapiens, UniProt P03372); settings: competition with 0.5 nM 3H-17β-estradiol, MCF-7 lysate protein, 18 hours at 5° C.
Experimental: Representative compounds of the present invention were tested in an estrogen receptor binding assay in which the test compounds were allowed to compete for binding with tritiated 17β-estradiol.
In the assay, serial dilutions of the test compound were mixed with 0.5 nM of ^3 H-17β-estradiol, along with 0.5 mg/mL of protein from MCF-7 lysates, to a total volume of 0.14 mL. Binding was allowed to take place for 18 hours at 5° C., followed by the addition of 0.07 mL of dextran/charcoal and centrifugation to remove non-bound radioligand. Aliquots of supernate containing bound radioligand were mixed with scintillant and counted. Relative binding affinity (RBA) was calculated as: [formula]

[3] = system: MCF-7 breast adenocarcinoma cells; assay: MCF-7 Proliferation Assay; format: cell-based; settings: dose level of 500 nM
Experimental: A. MCF-7 Proliferation Assay Test Procedure MCF-7 breast adenocarcinoma cells (ATCC HTB 22) are maintained in MEM (minimal essential medium, phenol-red free, Sigma St. Louis Mo.) supplemented with 10% fetal bovine serum (FBS) (v/v), L-glutamine (2 mM), sodium pyruvate ([…]), HEPES (10 mM), non-essential amino acids, and bovine insulin (1 ug/mL). Ten days prior to the assay, the MCF-7 cells are switched to maintenance medium supplemented with 10% dextran-coated charcoal stripped fetal bovine serum (DCC-FBS) assay medium in place of the 10% FBS to deplete internal stores of estrogen. MCF-7 cells are removed from the maintenance flasks using a cell dissociating medium (Ca/Mg free HBSS; phenol-red free) supplemented with 10 mM HEPES and 2 mM EDTA. Cells are washed twice with the assay medium and adjusted to 80,000 cells/mL. Approximately 100 uL (8,000 cells)are added to a flat-bottomed micro culture well (Costar 3596) and incubated at 37° C. in a 5% CO2 humidified incubator for 48 hours to allow cell adherence and equilibrium after transfer. […] Samples are counted by liquid scintillation. Fifty percent inhibitory concentration of the test drugs (IC50) are determined versus the control (DMSO).

estrogen receptor, sequence (P03372 whole entry): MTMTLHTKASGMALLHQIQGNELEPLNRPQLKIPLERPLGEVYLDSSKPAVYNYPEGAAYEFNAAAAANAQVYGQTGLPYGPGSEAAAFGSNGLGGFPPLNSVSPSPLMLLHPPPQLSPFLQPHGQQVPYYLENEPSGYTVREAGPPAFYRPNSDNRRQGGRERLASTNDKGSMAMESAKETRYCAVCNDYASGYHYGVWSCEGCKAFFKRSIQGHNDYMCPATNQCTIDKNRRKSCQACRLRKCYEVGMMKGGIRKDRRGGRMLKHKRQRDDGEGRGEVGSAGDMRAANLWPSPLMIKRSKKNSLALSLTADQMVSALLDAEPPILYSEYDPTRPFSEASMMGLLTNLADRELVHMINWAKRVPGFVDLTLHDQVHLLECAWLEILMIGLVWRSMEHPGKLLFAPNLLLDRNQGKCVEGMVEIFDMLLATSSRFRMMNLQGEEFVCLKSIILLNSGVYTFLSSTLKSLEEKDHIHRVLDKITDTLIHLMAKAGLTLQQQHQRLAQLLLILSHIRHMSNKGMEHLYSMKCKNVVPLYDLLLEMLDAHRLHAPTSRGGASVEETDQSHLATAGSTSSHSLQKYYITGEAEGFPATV

Row | Compound | eosinophil infiltration into the uterus (in words) ([1]; EE2 group) | Uterine Eosinophil (Vmax) (eosinophil peroxidase, Vmaximum) ([1]; dose 0.1 mg/kg) | Serum Cholesterol % Decrease ([1]; dose 0.1 mg/kg) | Uterine Weight Increase ([1]; dose 0.1 mg/kg) | serum cholesterol (in words) ([1]; orally administered at 0.1 mg/kg/day) | uterine weight (in words) ([1]; orally at 0.1 mg/kg/day, versus ovariectomized animals) | Uterine Eosinophil (Vmax) (eosinophil peroxidase, Vmaximum) ([1]; dose 0.01 mg/kg) | Serum Cholesterol % Decrease ([1]; dose 0.01 mg/kg) | Uterine Weight Increase ([1]; dose 0.01 mg/kg) | Uterine Eosinophil (Vmax) (eosinophil peroxidase, Vmaximum) ([1]; dose 1.0 mg/kg) | Serum Cholesterol % Decrease ([1]; dose 1.0 mg/kg) | Uterine Weight Increase ([1]; dose 1.0 mg/kg) | Uterine Eosinophil (Vmax) (eosinophil peroxidase, Vmaximum) ([1]; dose 10.0 mg/kg) | Serum Cholesterol % Decrease ([1]; dose 10.0 mg/kg) | Uterine Weight Increase ([1]; dose 10.0 mg/kg) | Relative binding affinity (RBA) [2] | inhibition of breast cancer cell proliferation [3]
1 | C#C[C@]1(O)CC[C@H]2[C@@H]3CCc4cc(O)ccc4[C@H]3CC[C@@]21C [EE2, 17-a-ethynyl estradiol, reference compound] | substantial and expected increase in eosinophil infiltration | 111.2 | 88.1% | 125.8% | caused a decrease in serum cholesterol | substantially greater than the uterine weight of the ovariectomized animals |  |  |  |  |  |  |  |  |  |  | 
2 | COc1ccc2c3c(sc2c1)C1=CC[C@H](O)[C@@]1(C)CC3 [Example 1, 3β-Hydroxy-8-methoxy-3aβ-methyl-3,3a,4,5-tetrahydro-2H-benz[b]indeno[5,4-d]thiophene] |  | 5.4 | 5% | 6.3% |  |  | 4.5 | 30.0% | -4.6% | 4.8 | 27.5% | 34.9% | 25.2 | 60.3% | 52.7% |  | 
3 | COc1ccc2c3c(sc2c1)[C@@H]1CC[C@@H](O)[C@]1(C)CC3 [Example 4a, 3α-Hydroxy-8-methoxy-3aα-methyl-2,3,3a,4,5,10bα-hexahydro-1H-benz[b]indeno[5,4-d]thiophene] |  | 3.6 | -5.5% | 10.4% |  |  |  |  |  | 3.3 | -8.1% | 14.8% | 2.4 | 63.8% | 37.6% |  | 
4 | COc1ccc2c3c(sc2c1)[C@H]1CC[C@@H](O)[C@]1(C)CC3 [Example 4b, 3α-hydroxy-8-methoxy-3aα-methyl-2,3,3a,4,5,10bβ-hexahydro-1H-benz[b]indeno[5,4-d]thiophene] |  | 3.9 | -12% | -2.6% |  |  |  |  |  | 3.9 | -4.3% | 10.7% | 30.0 | 73.1% | 116.3% |  | 
5 | COc1ccc2c3c(sc2c1)[C@@H]1CC[C@@H](O)[C@@]1(C)CC3 [Example 5, 3α-Hydroxy-8-methoxy-3aβ-methyl-2,3,3a,4,5,10bα-tetrahydro-1H-benz[b]indeno[5,4-d]thiophene] |  | 3.6 | -18.5% | 1.7% |  |  | 2.1 | 14.8% | -5.9% | 4.5 | 40.9% | 13.7% | 18.3 | 87.0% | 103.6% |  | 
6 | COc1ccc2c3c(sc2c1)[C@H]1CC[C@H](O)[C@]1(C)CC3 [Example 6, 3β-Hydroxy-8-methoxy-3aα-methyl-2,3,3a,4,5,10bβ-tetrahydro-1H-benz[b]indeno[5,4-d]thiophene] |  | 3.0 | -0.3% | 4.8% |  |  |  |  |  | 1.2 | -4.7% | 9.8% | 8.1 | 63.7% | 86.9% |  | 
7 | C[C@]12CCc3c(sc4cc(O)ccc34)[C@H]1CC[C@@H]2O [Example 7, 3β,8-Dihydroxy-3aβ-methyl-2,3,3a,4,5,10bβ-tetrahydro-1H-benz[b]indeno[5,4-d]thiophene] |  | 4.8 | 13% | 4.4% |  |  | 4.8 | 24.3% | -3.2% | 3.6 | 45.9% | 9.1% | 123.0 | 80.7% | 123.0% | 11 | inhibit breast cancer cell proliferation
8 | C[C@]12CCc3c(sc4cc(O)ccc34)[C@@H]1CC[C@@H]2O [Example 8, 3β,8-Dihydroxy-3aβ-methyl-2,3,3a,4,5,10bα-tetrahydro-1H-benz[b]indeno[5,4-d]thiophene] |  | 4.5 | 10.6% | 1.4% |  |  | 4.2 | -1% | 13.7% | 3.0 | 16.9% | 0.2% | 14.7 | 30.7% | 48.4% | 16 | 
9 | C[C@]12CCc3c(sc4cc(O)ccc34)[C@@H]1CC[C@H]2O [Example 9, 3α,8-Dihydroxy-3aβ-methyl-2,3,3a,4,5,10bα-tetrahydro-1H-benz[b]indeno[5,4-d]thiophene] |  | 3.3 | 12.4% | 10.2% |  |  | 4.5 | 5.7% | 5.5% | 3.9 | 32.1% | -5.3% | 106.5 | 90.9% | 103.1% | 9 | 
10 | C[C@@]12CCc3c(sc4cc(O)ccc34)[C@@H]1CC[C@H]2O [Example 10, 3α,8-Dihydroxy-3aα-methyl-2,3,3a,4,5,10bα-tetrahydro-1H-benz[b]indeno[5,4-d]thiophene] |  |  |  |  |  |  |  |  |  |  |  |  |  |  |  | 4 | 
11 | C[C@@]12CCc3c(sc4cc(O)ccc34)[C@H]1CC[C@H]2O [Example 11, 3α,8-Dihydroxy-3aα-methyl-2,3,3a,4,5,10bβ-tetrahydro-1H-benz[b]indeno[5,4-d]thiophene] |  |  |  |  |  |  |  |  |  |  |  |  |  |  |  | 4 | 

From patent US6218425A, “8-substituted B-nor-6-Thiaequilenin compounds having activity as selective estrogen receptor modulators” (Eli Lilly and Company, priority 1997, dated 2001)
